From US20240343727A1, “PYRIDAZINONE OR PYRIDINONE COMPOUNDS, PREPARATION METHODS AND USES THEREOF” (InventisBio Co., Ltd., priority 2021, published 2024)
pIC50: −log10 of the molar value.

biological target: T1, PARP7 (Homo sapiens, UniProt Q7Z3E1); assay: PARP7 TR-FRET assay (binding, displacement of biotinylated Probe A); conditions: 6 nM PARP7, 2 nM Probe A, 25° C., 30 min
T1 sequence (Q7Z3E1 1-657): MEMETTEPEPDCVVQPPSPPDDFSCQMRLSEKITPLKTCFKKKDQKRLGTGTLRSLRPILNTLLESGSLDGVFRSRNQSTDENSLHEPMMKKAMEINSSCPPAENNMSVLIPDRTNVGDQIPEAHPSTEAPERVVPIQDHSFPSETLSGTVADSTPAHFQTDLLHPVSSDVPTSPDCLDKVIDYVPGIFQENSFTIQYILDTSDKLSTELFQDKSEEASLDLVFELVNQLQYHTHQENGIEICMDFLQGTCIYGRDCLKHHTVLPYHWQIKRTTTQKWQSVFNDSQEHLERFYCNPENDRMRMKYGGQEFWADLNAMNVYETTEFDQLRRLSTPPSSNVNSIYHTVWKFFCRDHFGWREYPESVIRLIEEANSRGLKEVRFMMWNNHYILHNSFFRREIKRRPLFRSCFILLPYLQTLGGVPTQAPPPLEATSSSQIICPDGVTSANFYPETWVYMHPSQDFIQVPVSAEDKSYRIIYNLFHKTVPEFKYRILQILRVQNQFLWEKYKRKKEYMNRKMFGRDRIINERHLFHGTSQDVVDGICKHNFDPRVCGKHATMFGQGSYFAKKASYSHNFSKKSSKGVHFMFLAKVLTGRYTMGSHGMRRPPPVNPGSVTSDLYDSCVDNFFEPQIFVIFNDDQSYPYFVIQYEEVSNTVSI
Method: Biological Assay Example A: PARP7 TR-FRET Assay
A time-resolved fluorescence energy transfer (TR-FRET) assay was used to test binding activity of compounds to PARP7. Two microliter test compound was added in 384-well plate. Reactions were performed in a 6 uL volume by adding 4 uL mixture of PARP7 and Probe A (a biotinylated probe binding to the PARP7: N-(6-(2-(4-((2-(6-oxo-5-(trifluoromethyl)-1,6-dihydropyridazin-4-yl) isoindolin-5-yl) oxy) piperidin-1-yl) acetamido) hexyl)-5-((3aS,4S,6aR)-2-oxohexahydro-1H-thieno [3,4-d]imidazol-4-yl) pentanamide, made as reported in WO2019212937A1) in assay buffer (20 mM HEPES pH 8.0, 100 mM NaCl, 0.1% BSA, 2 mM DTT and 0.002% Tween20). The final concentration of PARP7 and Probe A were 6 nM and 2 nM, incubating with test compounds at 25° C. for 30 min. Four microliter ULight-anti 6xHis and LANCE Eu-W1024 labeled streptavidin (PerkinElmer) were added with the final concentration of ULight-anti 6xHis and LANCE Eu-W1024 at 4 nM and 0.25 nM. The reaction mixture was incubated at 25° C. for 30 min. The plate was read on a Tecan Spark plate reader (excitation wavelength at 320 nm, emission wavelength at 615 nm and 665 nm with a 90 us delay. The ratio of the 665/615 nm emission was calculated for each well to the amount of complex of PARP7 and Probe A in each well was calculated. The 0.25% DMSO vehicle was used as control and no PARP7 well was as blank well. Inhibition rate is calculated with the formula of % inhibition=100-100*(TRFcmpd-TRFblank)/(TRFcontrol−TRFblank). Inhibition IC50 is calculated with the equation of Y=Bottom+ (Top-Bottom)/(1+10^((LogIC50−X) *Hill Slope))

Row | SMILES | pIC50
1 | Cn1cc(-c2ccc3c(c2)N(c2cc(C(F)(F)F)c(=O)[nH]n2)CC(CC(=O)N2CCN(c4ncc(C(F)(F)F)cn4)CC2)O3)cn1 (single isomer, unassigned) [Compound 192] | > 7.00
2 | Cn1cc(-c2ccc3c(c2)N(c2cc(C(F)(F)F)c(=O)[nH]n2)CC(CC(=O)N2CCN(c4ncc(C(F)(F)F)cn4)CC2)O3)cn1 (single isomer, unassigned) [Compound 193] | > 7.00
3 | C#Cc1ccc2c(=O)[nH]nc(N3CCOC(CC(=O)N4CCN(c5ncc(C(F)(F)F)cn5)CC4)C3)c2c1 (single isomer, unassigned) [Compound 194] | > 7.00
4 | C#Cc1ccc2c(=O)[nH]nc(N3CCOC(CC(=O)N4CCN(c5ncc(C(F)(F)F)cn5)CC4)C3)c2c1 (single isomer, unassigned) [Compound 195] | > 7.00
5 | C#Cc1ccc2c(N3CCOC(CC(=O)N4CCN(c5ncc(C(F)(F)F)cn5)CC4)C3)n[nH]c(=O)c2c1 (single isomer, unassigned) [Compound 196] | 6.00 to 7.00
6 | C#Cc1ccc2c(N3CCOC(CC(=O)N4CCN(c5ncc(C(F)(F)F)cn5)CC4)C3)n[nH]c(=O)c2c1 (single isomer, unassigned) [Compound 197] | > 7.00
7 | N#Cc1ccc2c(c1)N(c1cc(C(F)(F)F)c(=O)[nH]n1)CC(CC(=O)N1CCN(c3ncc(C(F)(F)F)cn3)CC1)O2 (single isomer, unassigned) [Compound 200] | > 7.00
8 | N#Cc1ccc2c(c1)N(c1cc(C(F)(F)F)c(=O)[nH]n1)CC(CC(=O)N1CCN(c3ncc(C(F)(F)F)cn3)CC1)O2 (single isomer, unassigned) [Compound 201] | 6.00 to 7.00
9 | CS(=O)(=O)c1ccc2c(c1)N(c1cc(C(F)(F)F)c(=O)[nH]n1)CC(CC(=O)N1CCN(c3ncc(C(F)(F)F)cn3)CC1)O2 (single isomer, unassigned) [Compound 205] | > 7.00
10 | CS(=O)(=O)c1ccc2c(c1)N(c1cc(C(F)(F)F)c(=O)[nH]n1)CC(CC(=O)N1CCN(c3ncc(C(F)(F)F)cn3)CC1)O2 (single isomer, unassigned) [Compound 206] | > 7.00
11 | O=C(CC1CN(c2n[nH]c(=O)c3cc(OCC(F)F)ccc23)CCO1)N1CCN(c2ncc(C(F)(F)F)cn2)CC1 (single isomer, unassigned) [Compound 208] | < 6.00
12 | O=C(CC1CN(c2n[nH]c(=O)c3cc(OCC(F)F)ccc23)CCO1)N1CCN(c2ncc(C(F)(F)F)cn2)CC1 (single isomer, unassigned) [Compound 209] | < 6.00
13 | O=C(CC1CN(c2n[nH]c(=O)c3ccc(OCC(F)F)cc23)CCO1)N1CCN(c2ncc(C(F)(F)F)cn2)CC1 (single isomer, unassigned) [Compound 210] | > 7.00
14 | O=C(CC1CN(c2n[nH]c(=O)c3ccc(OCC(F)F)cc23)CCO1)N1CCN(c2ncc(C(F)(F)F)cn2)CC1 (single isomer, unassigned) [Compound 211] | > 7.00
15 | N#Cc1ccc(N2CCN(C(=O)CC3CN(c4cc(C(F)(F)F)c(=O)[nH]n4)c4cc(C#N)ccc4O3)CC2)nc1 (single isomer, unassigned) [Compound 215] | > 7.00
16 | N#Cc1cnc(N2CCN(C(=O)CC3CN(c4cc(C(F)(F)F)c(=O)[nH]n4)c4cc(C#N)ccc4O3)CC2)nc1 (single isomer, unassigned) [Compound 218] | > 7.00
17 | N#Cc1ccc2c(c1)N(c1cc(C(F)(F)F)c(=O)[nH]n1)CC(CC(=O)N1CCN(c3ncc(C(F)F)cn3)CC1)O2 (single isomer, unassigned) [Compound 219] | > 7.00
18 | O=C(CC1CN(c2n[nH]c(=O)c3ccc(N4CC(F)(F)C4)cc23)CCO1)N1CCN(c2ncc(C(F)(F)F)cn2)CC1 (single isomer, unassigned) [Compound 220] | > 7.00
19 | N#Cc1ccc(N2CCN(C(=O)CC3CN(c4cc(C(F)(F)F)c(=O)[nH]n4)c4ccccc4O3)CC2)nc1 (single isomer, unassigned) [Compound 221] | > 7.00
20 | N#Cc1ccc(N2CCN(C(=O)CC3CN(c4cc(C(F)(F)F)c(=O)[nH]n4)c4ccccc4O3)CC2)nc1 (single isomer, unassigned) [Compound 222] | 6.00 to 7.00
